In paper PMC6560211, “ApoAI-derived peptide increases glucose tolerance and prevents formation of atherosclerosis in mice” (Diabetologia, 2019):
No end group written: not given here.

Test: Peptide stability in physiologic buffer or blood plasma
Type: in vitro ADME
Settings: after denaturation/refolding; phosphate buffer, human plasma (citrate, pooled from four donors) or mouse CD-1 plasma (heparin); over 2 h; LC-MS/MS
Description: Peptide (lyophilised powder) produced by Red Glead (Lund, Sweden) was reconstituted in Milli-Q water and then either used directly or mixed in a 1:1 ratio with 6 mol/l guanidine HCl in 2× PBS to give a monodisperse solution, followed by desalting using a column equilibrated with PBS, pH 7.4, using ÄKTAxpress fast protein LC (GE Healthcare, Uppsala, Sweden). Peptide integrity was analysed using circular dichroism spectroscopy. Peptide solubility was assayed at Red Glead using HPLC. Peptide stability in physiologic buffer or blood plasma (human or mouse) over 2 h was assayed at the Science for Life Laboratory (Uppsala, Sweden). […]
Peptide concentration was determined at 205 nm using a NanoDrop 2000c spectrophotometer (Thermo Scientific) and integrity was analysed by Tris-Tricine SDS-PAGE followed by coomassie staining or by circular dichroism spectroscopy (CD). […]
The primary goal of this study was to investigate the anti -diabetic and anti-atherosclerotic efficacy of a novel ApoA -I derived peptide. Using a range of in vitro models, we assessed the effects of the peptide on HDL formation, cholesterol efflux, insulin secretion, and non -insulin dependent glucose uptake. […] Peptide effects were measured relative to full length ApoA -I and vehicle controls. […]
Supernatants were recovered and insulin secretion was analysed by ELISA (Mercodia). […]

## Ac-AEYHAKATEHLSTLSEKAKPALEDLRQGLLPVLESFKVSFLSALEEYTKKLNTQ [RG54]
  peptide integrity by peptide stability assays (buffer or plasma): confirmed
